# “And” between values parts separate entries of the source, which are not always exact repeats. Identical values can stand only once. Toxic doses and inconclusive results are not listed.
# Tested on: L1210 leukemia ip in BDF1 mice, survival T/C
# Assay: NCI In Vivo Anticancer Drug Screen. Data for tumor model L1210 Leukemia (intraperitoneal) in B6D2F1 (BDF1) mice
# Conditions: endpoint: mean survival time, higher = longer survival
# How it was run: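 Tumor cells were implanted, animals were treated, and survival was followed. The result divides the treated measurement by the vehicle-control measurement.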
# [1] = dose: 100.0 mg/kg/injection, schedule: Q04DX003 (ip), vehicle: saline with Tween-80
# [2] = dose: 200.0 mg/kg/injection, schedule: Q04DX003 (ip), vehicle: saline with Tween-80
# [3] = dose: 400.0 mg/kg/injection, schedule: Q04DX003 (ip), vehicle: saline with Tween-80
# [4] = dose: 100.0 mg/kg/injection, schedule: Q01DX009 (ip), vehicle: Klucel (hydroxypropylcellulose) (HPC)
# [5] = dose: 100.0 mg/kg/injection, schedule: Q04DX003 (ip), vehicle: Klucel (hydroxypropylcellulose) (HPC)
# [6] = dose: 200.0 mg/kg/injection, schedule: Q01DX009 (ip), vehicle: Klucel (hydroxypropylcellulose) (HPC)
# [7] = dose: 200.0 mg/kg/injection, schedule: Q04DX003 (ip), vehicle: Klucel (hydroxypropylcellulose) (HPC)
# [8] = dose: 400.0 mg/kg/injection, schedule: Q01DX009 (ip), vehicle: Klucel (hydroxypropylcellulose) (HPC)
# [9] = dose: 400.0 mg/kg/injection, schedule: Q04DX003 (ip), vehicle: Klucel (hydroxypropylcellulose) (HPC)
# [10] = dose: 50.0 mg/kg/injection, schedule: Q01DX009 (ip), vehicle: saline with Tween-80
# [11] = dose: 50.0 mg/kg/injection, schedule: Q04DX003 (ip), vehicle: saline with Tween-80
# [12] = dose: 100.0 mg/kg/injection, schedule: Q01DX001 (ip), vehicle: saline
# [13] = dose: 200.0 mg/kg/injection, schedule: Q01DX001 (ip), vehicle: saline
# [14] = dose: 400.0 mg/kg/injection, schedule: Q01DX001 (ip), vehicle: saline
compound,measurement,setting,value
CCC(CO)(CO)[N+](=O)[O-],T/C,[1],95 % of control
same,T/C,[2],91 % of control
same,T/C,[3],91 % of control
NC(CCl)=NCC1CCCCCC1,T/C,"dose: 25.0 mg/kg/injection, schedule: Q04DX002 (ip), vehicle: Klucel (hydroxypropylcellulose) (HPC)",107 % of control
same,T/C,"dose: 50.0 mg/kg/injection, schedule: Q04DX002 (ip), vehicle: Klucel (hydroxypropylcellulose) (HPC)",100 % of control
same,T/C,"dose: 100.0 mg/kg/injection, schedule: Q04DX002 (ip), vehicle: Klucel (hydroxypropylcellulose) (HPC)",101 % of control
CN(C)c1ccc(C2OC3(CCCCC3)C[N+]23CCCC3)cc1 (configuration not stated),T/C,"dose: 100.0 mg/kg/injection, schedule: Q04DX003 (ip), vehicle: acetone",102 % of control
CCO/C(=C\[P+](c1ccccc1)(c1ccccc1)c1ccccc1)c1ccccc1,T/C,"dose: 5.0 mg/kg/injection, schedule: Q01DX001 (ip), vehicle: saline",90 % of control
same,T/C,"dose: 10.0 mg/kg/injection, schedule: Q01DX001 (ip), vehicle: saline",93 % of control
same,T/C,"dose: 20.0 mg/kg/injection, schedule: Q01DX001 (ip), vehicle: saline",95 % of control
same,T/C,"dose: 40.0 mg/kg/injection, schedule: Q01DX001 (ip), vehicle: saline",95 % of control
Cc1cc(=O)n2c3c(c(N)ccc13)OC2,T/C,[4],108 % of control
same,T/C,[5],93 % of control
same,T/C,[6],97 % of control
same,T/C,[7],100 % of control
same,T/C,[8],93 % of control
same,T/C,[9],97 % of control
O=[N+]([O-])c1ccccc1S(=O)(=O)N1CCN(S(=O)(=O)c2ccccc2[N+](=O)[O-])C1,T/C,[4],90 % of control
same,T/C,[5],96 % of control
same,T/C,[6],93 % of control
same,T/C,[7],96 % of control
same,T/C,[8],93 % of control
same,T/C,[9],100 % of control
N#C/C(=C\c1ccc(-c2ccccc2)cc1)c1ccccc1,T/C,"dose: 12.5 mg/kg/injection, schedule: Q01DX009 (ip), vehicle: saline with Tween-80",87 % of control
same,T/C,"dose: 12.5 mg/kg/injection, schedule: Q04DX003 (ip), vehicle: saline with Tween-80",109 % of control
same,T/C,"dose: 25.0 mg/kg/injection, schedule: Q01DX009 (ip), vehicle: saline with Tween-80",87 % of control
same,T/C,"dose: 25.0 mg/kg/injection, schedule: Q04DX003 (ip), vehicle: saline with Tween-80",91 % of control
same,T/C,[10],86 % of control
same,T/C,[11],88 % of control
COc1ccc(/C=N/NC(=O)CNC(=O)NCc2ccccc2)cc1,T/C,[4],90 % of control
same,T/C,[6],93 % of control
CCCCSc1nc(SCCCC)nc(SCCCC)n1,T/C,"dose: 100.0 mg/kg/injection, schedule: Q04DX002 (ip), vehicle: saline with Tween-80",96 % of control
same,T/C,"dose: 200.0 mg/kg/injection, schedule: Q04DX002 (ip), vehicle: saline with Tween-80",111 % of control
same,T/C,"dose: 400.0 mg/kg/injection, schedule: Q04DX002 (ip), vehicle: saline with Tween-80",89 % of control
CCOC(=O)C1CCCCC1=O (configuration not stated),T/C,[4],88 % of control
same,T/C,[5],93 % of control
same,T/C,[6],97 % of control
same,T/C,[7],98 % of control
same,T/C,[8],111 % of control
same,T/C,[9],96 % of control
O=[N+]([O-])c1ccc2c(c1)N(CCCN1CCN(CCO)CC1)c1ccccc1S2,T/C,"dose: 12.5 mg/kg/injection, schedule: Q04DX003 (ip), vehicle: saline",111 % of control
same,T/C,"dose: 25.0 mg/kg/injection, schedule: Q04DX003 (ip), vehicle: saline",122 % of control
CC(C)CNC(=O)Oc1cccc(NC(=O)N(C)C)c1,T/C,[1],92 % of control
same,T/C,[2],94 % of control
same,T/C,[3],94 % of control
CC(=O)Oc1ccc(C=O)cc1,T/C,[11],96 % of control
same,T/C,[1],91 % of control
same,T/C,[2],96 % of control
Cc1nc(NC(=O)CBr)[nH]c(=O)c1CCC(C)C,T/C,[1],107 % of control
same,T/C,[2],100 % of control
same,T/C,[3],88 % of control
Cc1cccc2c(Br)cccc12,T/C,"dose: 100.0 mg/kg/injection, schedule: Q01DX001 (ip), vehicle: carboxymethylcellulose (CMC)",97 % of control
same,T/C,"dose: 200.0 mg/kg/injection, schedule: Q01DX001 (ip), vehicle: carboxymethylcellulose (CMC)",95 % of control
same,T/C,"dose: 400.0 mg/kg/injection, schedule: Q01DX001 (ip), vehicle: carboxymethylcellulose (CMC)",93 % of control
N#CCc1ccc(N=Nc2c(N)nc(N)[nH]c2=O)cc1,T/C,[12],98 % of control
same,T/C,[13],96 % of control
same,T/C,[14],96 % of control
CCC(O)C1CCCCN1 (configuration not stated),T/C,[1],91 % of control
same,T/C,[2],104 % of control
O=C(O)c1c(Cl)cccc1[N+](=O)[O-],T/C,[12],100 % of control
same,T/C,[13],96 % of control
same,T/C,[14],102 % of control
CCCCCCCC/C=C/CCCCCCCC(=O)NCC[N+]1(C)CCCCC1,T/C,"dose: 75.0 mg/kg/injection, schedule: Q01DX001 (ip), vehicle: saline",95 % of control
CC(C)(C)OC(=O)C(=O)C(OC(C)(C)C)C(=O)OC(C)(C)C (configuration not stated),T/C,[12],98 % of control
same,T/C,[13],102 % of control
Brc1cscc1C1=CCCc2ccccc21,T/C,[5],106 % of control
same,T/C,[7],98 % of control
same,T/C,[9],101 % of control
O=C1CC(c2ccc(OCN(CCCl)CCCl)cc2)CC(=O)C1CN(CCCl)CCCl (configuration not stated),T/C,"dose: 0.2 mg/kg/injection, schedule: Q01DX009 (ip), vehicle: carboxymethylcellulose (CMC)",95 % of control
same,T/C,"dose: 0.37 mg/kg/injection, schedule: Q01DX009 (ip), vehicle: saline",122 % of control
same,T/C,"dose: 0.39 mg/kg/injection, schedule: Q01DX009 (ip), vehicle: carboxymethylcellulose (CMC)",102 % of control
same,T/C,"dose: 0.5 mg/kg/injection, schedule: Q01DX009 (ip), vehicle: carboxymethylcellulose (CMC)",101 % of control
same,T/C,"dose: 0.9 mg/kg/injection, schedule: Q01DX009 (ip), vehicle: carboxymethylcellulose (CMC)",107 % of control
same,T/C,"dose: 1.0 mg/kg/injection, schedule: Q01DX009 (ip), vehicle: carboxymethylcellulose (CMC)",104 % of control
same,T/C,"dose: 1.4 mg/kg/injection, schedule: Q01DX009 (ip), vehicle: carboxymethylcellulose (CMC)",87 % of control
same,T/C,"dose: 2.0 mg/kg/injection, schedule: Q01DX001 (ip), vehicle: saline",193 % of control
same,T/C,"dose: 2.0 mg/kg/injection, schedule: Q01DX009 (ip), vehicle: carboxymethylcellulose (CMC)",114 % of control
same,T/C,"dose: 3.0 mg/kg/injection, schedule: Q01DX009 (ip), vehicle: saline",106 % of control and 90 % of control
same,T/C,"dose: 4.0 mg/kg/injection, schedule: Q01DX001 (ip), vehicle: saline",104 % of control and 109 % of control
same,T/C,"dose: 6.0 mg/kg/injection, schedule: Q04DX003 (ip), vehicle: saline",123 % of control
same,T/C,"dose: 6.6 mg/kg/injection, schedule: Q01DX009 (ip), vehicle: carboxymethylcellulose (CMC)",157 % of control
same,T/C,"dose: 7.5 mg/kg/injection, schedule: Q01DX001 (ip), vehicle: saline",122 % of control
same,T/C,"dose: 8.58 mg/kg/injection, schedule: Q01DX001 (ip), vehicle: carboxymethylcellulose (CMC)",124 % of control
same,T/C,"dose: 10.0 mg/kg/injection, schedule: Q01DX009 (ip), vehicle: carboxymethylcellulose (CMC)",93 % of control
same,T/C,"dose: 13.0 mg/kg/injection, schedule: Q01DX001 (ip), vehicle: carboxymethylcellulose (CMC)",114 % of control
same,T/C,"dose: 19.5 mg/kg/injection, schedule: Q01DX001 (ip), vehicle: carboxymethylcellulose (CMC)",118 % of control
same,T/C,"dose: 0.1 micrograms/kg/injection, schedule: Q01DX001 (ip), vehicle: saline",100 % of control
same,T/C,"dose: 0.2 micrograms/kg/injection, schedule: Q01DX001 (ip), vehicle: saline",102 % of control
same,T/C,"dose: 0.5 micrograms/kg/injection, schedule: Q01DX001 (ip), vehicle: saline",100 % of control
same,T/C,"dose: 1.0 micrograms/kg/injection, schedule: Q01DX001 (ip), vehicle: saline",100 % of control
CC1=CC(C)(C)NC(=S)N1c1ccc(N(C)C)cc1,T/C,"dose: 112.0 mg/kg/injection, schedule: Q01DX Z (ip), vehicle: methylcellulose (MC)",101 % of control
same,T/C,"dose: 166.0 mg/kg/injection, schedule: Q01DX Z (ip), vehicle: methylcellulose (MC)",96 % of control
same,T/C,"dose: 250.0 mg/kg/injection, schedule: Q01DX Z (ip), vehicle: methylcellulose (MC)",94 % of control
same,T/C,"dose: 375.0 mg/kg/injection, schedule: Q01DX Z (ip), vehicle: methylcellulose (MC)",96 % of control
O=Cc1cscc1-c1cscc1C=O,T/C,[10],91 % of control
same,T/C,"dose: 100.0 mg/kg/injection, schedule: Q01DX009 (ip), vehicle: saline with Tween-80",95 % of control
same,T/C,"dose: 200.0 mg/kg/injection, schedule: Q01DX009 (ip), vehicle: saline with Tween-80",98 % of control
CNC(=S)SC,T/C,"dose: 50.0 mg/kg/injection, schedule: Q01DX001 (ip), vehicle: saline",90 % of control
same,T/C,[12],98 % of control
same,T/C,[13],96 % of control
Oc1ccccc1/C=N/Nc1c2ccccc2nc2ccccc12,T/C,[12],103 % of control
same,T/C,[14],93 % of control
